In ChEMBL document CHEMBL4402545, “Subtype Selective γ-Aminobutyric Acid Type A Receptor (GABAAR) Modulators Acting at the Benzodiazepine Binding Site: An Update” (J Med Chem, 2020):

Key:
[1] = tested on: Homo sapiens; experiment: In vivo receptor occupancy GABAA receptor in human assessed as neocortical regions concentration causing reduction in [11C]flumazenil receptor labeling at 1.5 mg after 24 hrs by PET method relative to control; assay type: functional
[2] = tested on: Rattus norvegicus; experiment: In vivo receptor occupancy at GABAA receptor in po dosed Sprague-Dawley rat assessed as plasma concentration causing 50% reduction in [3H]-flumazenil receptor labeling by scintillation counting method; assay type: functional
[3] = tested on: Homo sapiens; experiment: In vivo receptor occupancy GABAA receptor in human assessed as neocortical regions concentration causing reduction in [11C]flumazenil receptor labeling at 1.5 mg after 5 hrs by PET method relative to control; assay type: functional
[4] = molecular target: T1, Gamma-aminobutyric acid receptor subunit alpha-5 (Homo sapiens) (UniProt P31644); experiment: Binding affinity to GABA-A alpha5 (unknown origin) assessed as increase in induced current relative to control
T1 sequence (whole entry): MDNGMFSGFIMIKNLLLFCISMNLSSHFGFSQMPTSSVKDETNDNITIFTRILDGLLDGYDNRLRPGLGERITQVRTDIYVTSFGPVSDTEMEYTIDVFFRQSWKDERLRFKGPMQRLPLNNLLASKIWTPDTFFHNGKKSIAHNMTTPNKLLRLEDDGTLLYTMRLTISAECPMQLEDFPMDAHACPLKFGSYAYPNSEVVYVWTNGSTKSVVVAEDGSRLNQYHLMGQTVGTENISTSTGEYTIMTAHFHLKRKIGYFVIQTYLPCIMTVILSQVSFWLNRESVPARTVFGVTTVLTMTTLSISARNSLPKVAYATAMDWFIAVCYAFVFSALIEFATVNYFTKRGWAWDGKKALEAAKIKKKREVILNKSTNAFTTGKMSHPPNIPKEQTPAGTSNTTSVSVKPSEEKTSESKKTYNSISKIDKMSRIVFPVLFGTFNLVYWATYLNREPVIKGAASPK

[5] = tested on: Rattus norvegicus; experiment: In vivo receptor occupancy at GABAA receptor in po dosed Sprague-Dawley rat assessed as brain concentration causing 50% reduction in [3H]-flumazenil receptor labeling after 0.75 hrs by scintillation counting method; assay type: functional
[6] = molecular target: T2, Gamma-aminobutyric acid receptor subunit alpha-2 (Homo sapiens, UniProt P47869); experiment: Binding affinity to GABA-A alpha2 (unknown origin)
T2 sequence (P47869 whole entry): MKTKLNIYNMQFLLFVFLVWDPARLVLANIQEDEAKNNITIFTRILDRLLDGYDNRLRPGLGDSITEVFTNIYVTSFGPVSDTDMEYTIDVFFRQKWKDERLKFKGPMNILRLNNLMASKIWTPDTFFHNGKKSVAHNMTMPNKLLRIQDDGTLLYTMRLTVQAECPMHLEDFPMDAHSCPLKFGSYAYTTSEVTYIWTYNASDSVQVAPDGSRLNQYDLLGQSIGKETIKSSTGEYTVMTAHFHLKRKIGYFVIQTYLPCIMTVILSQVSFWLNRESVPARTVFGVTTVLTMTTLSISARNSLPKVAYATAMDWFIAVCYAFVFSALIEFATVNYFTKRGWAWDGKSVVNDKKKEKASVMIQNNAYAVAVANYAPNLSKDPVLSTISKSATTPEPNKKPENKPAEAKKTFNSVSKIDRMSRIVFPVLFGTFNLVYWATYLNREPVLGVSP

[7] = molecular target: T3, Gamma-aminobutyric acid receptor subunit alpha-5 (Homo sapiens, UniProt P31644); experiment: Binding affinity to GABA-A alpha5 (unknown origin)
T3 sequence (P31644 whole entry): T1 sequence (whole entry)

[8] = molecular target: T4, Gamma-aminobutyric acid receptor subunit alpha-2 (Homo sapiens) (UniProt P47869); experiment: Binding affinity to GABA-A alpha2 (unknown origin) assessed as increase in induced current relative to control
T4 sequence (whole entry): T2 sequence (P47869 whole entry)

[9] = molecular target: T5, Gamma-aminobutyric acid receptor subunit alpha-3 (Homo sapiens, UniProt P34903); experiment: Binding affinity to GABA-A alpha3 (unknown origin)
T5 sequence (P34903 whole entry): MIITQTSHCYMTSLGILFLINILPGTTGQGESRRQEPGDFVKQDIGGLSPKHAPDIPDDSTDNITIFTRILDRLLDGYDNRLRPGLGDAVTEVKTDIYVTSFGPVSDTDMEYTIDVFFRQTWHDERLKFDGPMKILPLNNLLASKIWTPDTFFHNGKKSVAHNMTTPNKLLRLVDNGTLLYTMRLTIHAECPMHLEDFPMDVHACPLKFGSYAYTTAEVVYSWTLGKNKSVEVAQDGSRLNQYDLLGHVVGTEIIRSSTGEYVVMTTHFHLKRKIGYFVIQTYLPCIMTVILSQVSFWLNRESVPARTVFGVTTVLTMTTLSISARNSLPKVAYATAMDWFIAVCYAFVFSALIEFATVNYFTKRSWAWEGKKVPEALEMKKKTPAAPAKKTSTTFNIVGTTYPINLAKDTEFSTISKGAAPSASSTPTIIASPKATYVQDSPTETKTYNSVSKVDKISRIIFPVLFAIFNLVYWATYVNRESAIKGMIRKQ

[10] = molecular target: T6, Gamma-aminobutyric acid receptor subunit alpha-3 (Homo sapiens) (UniProt P34903); experiment: Binding affinity to GABA-A alpha3 (unknown origin) assessed as increase in induced current relative to control
T6 sequence (whole entry): T5 sequence (P34903 whole entry)

[11] = molecular target: T7, Gamma-aminobutyric acid receptor subunit alpha-1 (Homo sapiens) (UniProt P14867); experiment: Binding affinity to GABA-A alpha1 (unknown origin) assessed as increase in induced current relative to control
T7 sequence (whole entry): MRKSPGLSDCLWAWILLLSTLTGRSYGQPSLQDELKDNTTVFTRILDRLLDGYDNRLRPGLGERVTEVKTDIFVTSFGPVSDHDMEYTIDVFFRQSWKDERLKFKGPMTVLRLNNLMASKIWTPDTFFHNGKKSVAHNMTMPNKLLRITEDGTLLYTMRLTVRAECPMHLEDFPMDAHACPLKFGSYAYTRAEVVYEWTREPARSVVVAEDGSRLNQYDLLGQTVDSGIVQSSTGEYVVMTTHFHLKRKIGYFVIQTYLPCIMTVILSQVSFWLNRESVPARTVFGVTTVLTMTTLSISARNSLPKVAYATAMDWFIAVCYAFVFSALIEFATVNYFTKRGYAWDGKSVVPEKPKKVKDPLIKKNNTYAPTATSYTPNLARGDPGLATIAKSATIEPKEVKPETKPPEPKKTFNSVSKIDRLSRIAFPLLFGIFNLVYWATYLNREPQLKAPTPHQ

[12] = tested on: Homo sapiens; experiment: In vivo receptor occupancy at GABAA receptor in po dosed human assessed as plasma concentration causing 50% reduction in [11C]-flumazenil receptor labeling; assay type: functional
[13] = molecular target: T8, Gamma-aminobutyric acid receptor subunit alpha-1 (Homo sapiens, UniProt P14867); experiment: Binding affinity to GABA-A alpha1 (unknown origin)
T8 sequence (P14867 whole entry): T7 sequence (whole entry)

[14] = tested on: Rattus norvegicus; experiment: In vivo receptor occupancy at GABAA receptor in po dosed rat assessed as brain concentration causing 50% reduction in [3H]-flumazenil receptor labeling after 18 hrs by scintillation counting method; assay type: functional
[15] = tested on: Homo sapiens; experiment: In vivo receptor occupancy at GABAA receptor in human assessed as plasma concentration causing reduction in [11C]-flumazenil receptor labeling at 9 ng/ml by PET method relative to control; assay type: functional
[16] = tested on: Rattus norvegicus; experiment: In vivo receptor occupancy at GABAA receptor in po dosed rat assessed as plasma concentration causing 50% reduction in [3H]-flumazenil receptor labeling by scintillation counting method; assay type: functional
[17] = molecular target: T9, GABA-A receptor; alpha-1/beta-3/gamma-2 (Homo sapiens, UniProt P14867+P18507+P28472); experiment: Displacement of [3H]-flumazenil from human GABAA alpha1beta3gamma2 expressed in Ltk cells; assay type: cell-based
T9 sequence (P14867 whole entry): T7 sequence (whole entry)
T9 sequence (P18507 whole entry): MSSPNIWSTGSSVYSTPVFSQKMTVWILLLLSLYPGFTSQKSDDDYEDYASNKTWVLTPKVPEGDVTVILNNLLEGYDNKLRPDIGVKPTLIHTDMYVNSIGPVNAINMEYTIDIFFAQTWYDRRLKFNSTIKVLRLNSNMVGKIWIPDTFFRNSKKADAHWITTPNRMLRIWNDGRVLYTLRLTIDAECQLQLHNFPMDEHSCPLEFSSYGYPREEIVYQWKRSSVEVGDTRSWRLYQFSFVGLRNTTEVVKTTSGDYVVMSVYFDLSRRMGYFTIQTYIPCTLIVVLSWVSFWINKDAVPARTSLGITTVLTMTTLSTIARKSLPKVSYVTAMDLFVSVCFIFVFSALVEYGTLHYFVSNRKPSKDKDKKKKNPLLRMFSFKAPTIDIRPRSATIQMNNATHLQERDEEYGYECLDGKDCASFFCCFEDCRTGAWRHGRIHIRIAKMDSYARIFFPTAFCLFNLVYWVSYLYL
T9 sequence (P28472 whole entry): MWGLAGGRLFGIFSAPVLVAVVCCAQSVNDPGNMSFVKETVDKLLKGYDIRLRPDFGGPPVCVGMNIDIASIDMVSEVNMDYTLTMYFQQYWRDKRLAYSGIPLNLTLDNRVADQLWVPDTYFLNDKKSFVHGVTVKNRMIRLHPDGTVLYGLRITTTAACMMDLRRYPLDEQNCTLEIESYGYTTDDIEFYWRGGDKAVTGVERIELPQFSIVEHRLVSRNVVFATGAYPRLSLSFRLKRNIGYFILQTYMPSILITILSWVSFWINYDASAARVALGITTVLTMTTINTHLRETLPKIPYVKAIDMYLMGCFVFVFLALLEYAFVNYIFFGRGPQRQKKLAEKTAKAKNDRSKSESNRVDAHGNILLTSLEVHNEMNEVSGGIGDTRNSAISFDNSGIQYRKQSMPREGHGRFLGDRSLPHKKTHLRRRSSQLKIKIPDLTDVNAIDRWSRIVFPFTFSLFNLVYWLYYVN

[18] = molecular target: T10, GABA-A receptor; alpha-3/beta-3/gamma-2 (Homo sapiens, UniProt P18507+P28472+P34903); experiment: Displacement of [3H]-flumazenil from human GABAA alpha3beta3gamma2 expressed in Ltk cells; assay type: cell-based
T10 sequence (P18507 whole entry): T9 sequence (P18507 whole entry)
T10 sequence (P28472 whole entry): T9 sequence (P28472 whole entry)
T10 sequence (P34903 whole entry): T5 sequence (P34903 whole entry)

[19] = molecular target: T11, GABA-A receptor; alpha-5/beta-3/gamma-2 (Homo sapiens, UniProt P18507+P28472+P31644); experiment: Displacement of [3H]-flumazenil from human GABAA alpha5beta3gamma2 expressed in Ltk cells; assay type: cell-based
T11 sequence (P18507 whole entry): T9 sequence (P18507 whole entry)
T11 sequence (P28472 whole entry): T9 sequence (P28472 whole entry)
T11 sequence (P31644 whole entry): T1 sequence (whole entry)

SMILES | Occ [1] | Occ50 [2] | Occ [3] | fold change (FC) [4] | Occ50 [5] | Ki [6] | Ki [7] | fold change (FC) [8] | Ki [9] | fold change (FC) [10] | fold change (FC) [11] | Occ50 [12] | Ki [13] | Occ50 [14] | Occ [15] | Occ50 [16] | Ki [17] | Ki [18] | Ki [19]
CC(C)(O)c1cnn2c(-c3ccc(F)c(-c4c(F)cccc4C#N)c3)cnc2n1 | 46% | 19 ng/mL | 52% | 0.37 | 0.09 mg/kg | 2 nM | 1.1 nM | 0.38 | 1.8 nM | 0.5 | 0.03 | 5.8 ng/mL | 0.73 nM | – | – | – | – | – | –
CCn1ncnc1COc1nn2c(-c3ccccc3F)nnc2cc1C(C)(C)C [MK-0777] | – | – | – | – | – | – | – | – | – | – | – | – | – | 0.42 mg/kg | 50% | 25 ng/mL | – | – | –
Cn1ncnc1COc1nn2c(-c3cc(F)ccc3F)nnc2cc1C(C)(C)C | – | – | – | 0.39 | – | – | – | 0.43 | – | 0.43 | 0.02 | – | – | – | – | – | 0.79 nM | 0.67 nM | 2.25 nM
